Two molecules from publication PMC12313074, “Targeting translation initiation yields fast-killing therapeutics against the zoonotic parasite Cryptosporidium parvum” (PLOS Pathogens, 2025) can be followed below.

The target in data set [1] is T1, MDR1 (multi-drug resistance-1) (Homo sapiens, UniProt P08183).
T1 construct: gene ABCB1; transient over-expression from pCMV3-MDR1 in HCT-8 cells
As to the kind of experiment: cell tolerance (viability) assay, MDR1-overexpressing vs vector HCT-8 cells, reversed by elacridar. Type of data set: cell-based.

The target in a further data set is MBP-CpeIF4A (Cryptosporidium parvum, UniProt F0X401 1-405). Description: RNA alone, no ATP, no Roc-A; TSA: 90 mM Na2HPO4, 10 mM NaH2PO4, 2 mM DTT, pH 7.8, 5 uM MBP-CpeIF4A, 20 uM SYPRO Orange; melt 40-70 C at 1 C/min. The following applies: protein: recombinant; tags: N-terminal MBP (pMAL-c5X); label: 6-FAM on 42-nt strand (text says 5' end, printed at 3'); BHQ-1 on 24-nt strand (text says 3', printed at 5'); 5' overhang 18 nt on strand 1, 24 bp duplex.

Turning to `COc1ccc([C@@]23Oc4cc(OC)cc(OC)c4[C@]2(O)[C@H](O)[C@H](C(=O)N(C)C)[C@H]3c2ccccc2)cc1` [Roc-A, Rocaglamide A], the “cell tolerance (viability) assay, MDR1-overexpressing vs vector HCT-8 cells, rev” value in data set [1] was “reversed this tolerance in a dose-dependent manner (Fig 1D, bars from 3a to 6b), verifying that Roc-A is an MDR1 substrate”.

B1: 5'-overhanging duplex RNA (42/24 nt) (dsRNA)
RNA 1: CAUUAUCGGAUAGUGGAACCUAGCUUCGACUAUCGGAUAAUC
RNA 2: GAUUAUCCGAUAGUCGAAGCUAGG
With B1, the dissociation constant Kd (commonly the equilibrium constant for the complex coming apart) with MBP-CpeIF4A worked out at 1130 nM.
